Reference: US9850283B2, “Macrocyclic inhibitors of the PD-1/PD-L1 and CD80(B7-1)/PD-L1 protein/protein interactions” (BRISTOL-MYERS SQUIBB COMPANY, priority 2013, dated 2017)
Like-named read-outs stand apart in the source and are kept apart here. Positions of bridges follow the written chain, without caps; N, C: chain ends. Non-standard residues stand in square brackets, D forms with d. Residues, ends and D or L forms follow the SMILES beside them. ξ: configuration not given here. Ala(thiazol-5-yl) = N[C@@H](Cc1cncs1)C(=O)O; 1Nal = N[C@@H](Cc1cccc2ccccc12)C(=O)O; Bta = N[C@@H](Cc1csc2ccccc12)C(=O)O; NMeIle(3ξ) = CCC(C)[C@H](NC)C(=O)O; Hyp = O=C(O)[C@@H]1C[C@@H](O)CN1; NMeF = CN[C@@H](Cc1ccccc1)C(=O)O; NMeD = CN[C@@H](CC(=O)O)C(=O)O; NMeNle = CCCC[C@H](NC)C(=O)O; NMeA = CN[C@@H](C)C(=O)O; Dab = NCC[C@H](N)C(=O)O; Dap = NC[C@H](N)C(=O)O; Sar = CNCC(=O)O

Assays:
[1] = biological target: T1, Human PD-L1/PD-1 (Homo sapiens, UniProt Q9NZQ7); assay: HTRF PD-1-Ig/PD-L1-His binding assay (human PD-L1); details: cluster symbol; read-out: HTRF IC50 cluster
T1 construct: made in house; host or cells: HEK293T
T1 sequence (Q9NZQ7 with tags, fused parts or gaps): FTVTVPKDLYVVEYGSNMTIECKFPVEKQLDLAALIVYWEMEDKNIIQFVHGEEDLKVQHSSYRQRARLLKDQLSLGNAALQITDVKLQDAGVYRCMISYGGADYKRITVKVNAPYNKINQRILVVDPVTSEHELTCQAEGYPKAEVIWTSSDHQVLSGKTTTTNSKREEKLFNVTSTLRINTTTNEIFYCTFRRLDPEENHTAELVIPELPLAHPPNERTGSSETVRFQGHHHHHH
In short: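 Steps: truncated PD-1-Ig and PD-L1-His fusions are incubated in dPBS containing 0.1% (w/v) BSA and 0.05% (v/v) Tween-20. Detection antibodies are then added (Eu cryptate anti-Ig at 1 nM final, APC anti-His at 20 nM final), and time-resolved FRET is measured.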

[2] = biological target: T2, LK35.2-hPD-L1 cells / PE-labeled PD-1-Ig (Homo sapiens, UniProt Q9NZQ7); assay: LK35.2-hPD-L1 cell binding high-content screening assay; format: cell-based; details: cluster symbol, read-out: CBA IC50 cluster
T2 construct: expressed in transfected cells; host or cells: LK35.2 mouse B cell line
T2 sequence (Q9NZQ7 19-290): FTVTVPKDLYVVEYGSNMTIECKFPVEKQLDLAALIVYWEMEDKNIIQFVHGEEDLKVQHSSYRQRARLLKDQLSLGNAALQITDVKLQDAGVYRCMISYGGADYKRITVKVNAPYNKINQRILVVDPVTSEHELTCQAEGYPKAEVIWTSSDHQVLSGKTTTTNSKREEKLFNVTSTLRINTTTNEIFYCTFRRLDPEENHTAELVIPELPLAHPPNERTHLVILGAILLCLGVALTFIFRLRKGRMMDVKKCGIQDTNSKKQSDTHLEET
In short: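 Mouse LK35.2 B cells stably over-expressing human PD-L1, cultured overnight, treated with compound plus PE-labeled human PD-1-Ig (1 nM final) in RPMI/10% FCS for 1 h at 37 °C. After washing, bound fluorescence quantified by high-content imaging.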

[3] = cell line of CBA not given (LK35.2-hPD-L1 or 293T-hPD-L1)
[4] = cell binding assay, cell line not given

Q: `CCCC[C@H]1C(=O)N(C)[C@@H](CCCC)C(=O)N[C@@H](CCCNC(=N)N)C(=O)N[C@H](C(=O)NCC(N)=O)CSCC(=O)N[C@@H](Cc2ccc(O)cc2)C(=O)N(C)[C@@H](CC(=O)O)C(=O)N[C@@H](CC(N)=O)C(=O)N2CCC[C@H]2C(=O)N[C@@H](Cc2cnc[nH]2)C(=O)N[C@@H](CC(C)C)C(=O)N2CCC[C@H]2C(=O)N[C@@H](Cc2c[nH]c3ccccc23)C(=O)N[C@@H](CO)C(=O)N[C@@H](Cc2csc3ccccc23)C(=O)N1C` [Example 1190] ({CH2CO}-Y[NMeD]NPHLPWS[Bta][NMeNle][NMeNle]RCG-NH2; thioether N-14) was tested. Which IC50 [1] did it give?
A: Its IC50 is > 30.5 nM.

Q: What about the IC50 [2, 3] of the same molecule?
A: Its IC50 is > 74.3 nM.

Q: Which IC50 [1] does the source give for `CCCC[C@H]1C(=O)N(C)[C@@H](CCCC)C(=O)N[C@@H](CCCNC(=N)N)C(=O)N[C@H](C(=O)NCC(N)=O)CSCC(=O)N[C@@H](Cc2ccccc2)C(=O)N(C)[C@@H](C)C(=O)N[C@@H](CC(N)=O)C(=O)N2CCC[C@H]2C(=O)N[C@@H](Cc2cnc[nH]2)C(=O)N[C@@H](CCCCN)C(=O)N(C)CC(=O)N[C@@H](Cc2c[nH]c3ccccc23)C(=O)N[C@@H](CO)C(=O)N[C@@H](Cc2c[nH]c3ccccc23)C(=O)N1C` [Example 6004] ({CH2CO}-F[NMeA]NPHK[Sar]WSW[NMeNle][NMeNle]RCG-NH2; thioether N-14) here?
A: The IC50 was 6.76 to 30.3 nM.

Q: What about the IC50 [2, 4] of the same molecule?
A: Its IC50 is 4.78 to 72.9 nM.

Q: Which IC50 [1] does the source give for `CCCC[C@H]1C(=O)N(C)[C@@H](CCCC)C(=O)N[C@@H](CCCNC(=N)N)C(=O)N[C@H](C(=O)NCC(N)=O)CSCC(=O)N[C@@H](Cc2ccccc2)C(=O)N(C)[C@@H](C)C(=O)N[C@@H](CC(N)=O)C(=O)N2CCC[C@H]2C(=O)N[C@@H](Cc2cncs2)C(=O)N[C@@H](CC(C)C)C(=O)N(C)CC(=O)N[C@@H](Cc2c[nH]c3ccccc23)C(=O)N[C@@H](CO)C(=O)N[C@@H](Cc2c[nH]c3ccccc23)C(=O)N1C` [Example 1067] ({CH2CO}-F[NMeA]NP[Ala(thiazol-5-yl)]L[Sar]WSW[NMeNle][NMeNle]RCG-NH2; thioether N-14) here?
A: Its IC50 is > 30.5 nM.

Q: And the IC50 [2, 3]?
A: Its IC50 is > 74.3 nM.

Q: For `CCCC[C@H]1C(=O)N[C@@H](CN)C(=O)N[C@H](C(=O)NCC(N)=O)CSCC(=O)N[C@@H](Cc2ccc(O)cc2)C(=O)N(C)[C@@H](C)C(=O)N[C@@H](CC(N)=O)C(=O)N2CCC[C@H]2C(=O)N[C@@H](Cc2c[nH]cn2)C(=O)N[C@@H](CCC(=O)O)C(=O)N2C[C@H](O)C[C@H]2C(=O)N[C@@H](Cc2c[nH]c3ccccc23)C(=O)N[C@@H](CCN)C(=O)N[C@@H](Cc2c[nH]c3ccccc23)C(=O)N(C)[C@@H](C(C)CC)C(=O)N1C` (some centres unmarked) [Example 5146] ({CH2CO}-Y[NMeA]NPHE[Hyp]W[Dab]W[NMeIle(3ξ)][NMeNle][Dap]CG-NH2; thioether N-14), which IC50 [1] is on record?
A: The IC50 was 6.76 to 30.3 nM.

Q: What about the IC50 [2, 4] of the same molecule?
A: The IC50 was 4.78 to 72.9 nM.

Q: Which IC50 [1] does the source give for `CCCC[C@H]1C(=O)N(C)[C@@H](CCCC)C(=O)N[C@@H](CCCNC(=N)N)C(=O)N[C@H](C(=O)NCC(N)=O)CSCC(=O)N[C@@H](Cc2ccccc2)C(=O)N(C)[C@@H](C)C(=O)N[C@@H](CO)C(=O)N2CCC[C@H]2C(=O)N[C@@H](Cc2cnc[nH]2)C(=O)N[C@@H](CC(C)C)C(=O)N(C)CC(=O)N[C@@H](Cc2c[nH]c3ccccc23)C(=O)N[C@@H](CO)C(=O)N[C@@H](Cc2c[nH]c3ccccc23)C(=O)N1C` [Example 5019] ({CH2CO}-F[NMeA]SPHL[Sar]WSW[NMeNle][NMeNle]RCG-NH2; thioether N-14) here?
A: The IC50 was 6.76 to 30.3 nM.

Q: And the IC50 [2, 4]?
A: Its IC50 is 4.78 to 72.9 nM.

Q: Which results are given for `CCCC[C@H]1C(=O)N(C)CC(=O)N[C@@H](CC(=O)O)C(=O)N[C@@H](C(C)C)C(=O)N(C)[C@@H](Cc2ccccc2)C(=O)N[C@@H](Cc2ccc(O)cc2)C(=O)N(C)CC(=O)N[C@@H](Cc2c[nH]c3ccccc23)C(=O)N[C@@H](Cc2ccc(O)cc2)C(=O)N[C@@H](CC(C)C)C(=O)N[C@H](C(=O)NCC(N)=O)CSCC(=O)N[C@@H](Cc2ccccc2)C(=O)N[C@@H](Cc2cccc3ccccc23)C(=O)N1C` [Example 3569] ({CH2CO}-F[1Nal][NMeNle][Sar]DV[NMeF]Y[Sar]WYLCG-NH2; thioether N-13)?
A: IC50 [1]: > 30.5 nM; IC50 [2, 4]: > 74.3 nM

Q: Which IC50 [1] does the source give for `CCCC[C@H]1C(=O)N(C)[C@@H](CCCC)C(=O)N[C@@H]([C@@H](C)CC)C(=O)N[C@H](C(=O)NCC(N)=O)CSCC(=O)N[C@@H](Cc2ccccc2)C(=O)N(C)[C@@H](C)C(=O)N[C@@H](CC(N)=O)C(=O)N2CCC[C@H]2C(=O)N[C@@H](Cc2cnc[nH]2)C(=O)N[C@@H](CC(C)C)C(=O)N(C)CC(=O)N[C@@H](Cc2c[nH]c3ccccc23)C(=O)N[C@@H](CO)C(=O)N[C@@H](Cc2c[nH]c3ccccc23)C(=O)N1C` [Example 5018] ({CH2CO}-F[NMeA]NPHL[Sar]WSW[NMeNle][NMeNle]ICG-NH2; thioether N-14) here?
A: Its IC50 is 6.76 to 30.3 nM.

Q: What about the IC50 [2, 4] of the same molecule?
A: The IC50 was 4.78 to 72.9 nM.
